{
  "source": "patent US20260053811A1",
  "about": "“METHODS OF TREATING HYPERTENSION IN OBESE SUBJECTS” (Mineralys Therapeutics, Inc., priority 2022, published 2026)",
  "key": {"11-deoxycortisol": {"system": "11-deoxycortisol", "test": "Plasma 11-deoxycortisol (pharmacodynamic response)", "format": "in vivo, human", "settings": "for 11-Deoxycortisol, Mean (SD) Observed / 11-Deoxycortisol, Mean (SD) Percent Change from Baseline: Part 1; for 11-Deoxycortisol, Mean Observed / 11-Deoxycortisol, Mean Percent Change from Baseline: Part 2", "from_the_text": "PK/PD Analysis Set includes all subjects in the SAF who have sufficient data available for the analysis of pharmacokinetic and pharmacodynamic measurements. In the analyses based on PKPD, subjects will be analyzed according to the actual treatment received."}, "hypertensive subjects": {"system": "hypertensive subjects", "test": "ACTH stimulation testing / adrenocortical insufficiency", "format": "in vivo, human", "procedure": "11-deoxycorticosterone levels were unaffected. […] Due to supply chain disruption, the ability to perform ACTH stimulation testing was limited during the first part of the trial. However, the majority of subjects in Part 2 dosed with 100 mg QD, the maximum dose tested, had ACTH-stimulation testing performed at Baseline and after 8 weeks of treatment."}},
  "data": [
    {"molecule": "CC(=O)N[C@H]1CC[C@H](NC(=O)CN2CCN(c3nncc(-c4ccc(C)cc4)n3)CC2)CC1", "note": "[Compound A HBr]", "values": [
      {"measurement": "11-Deoxycortisol, Mean (SD) Observed", "setting": "11-deoxycortisol; Wk 4, 12.5 mg BID", "value": "24.89 (18.99) ng/dL"},
      {"measurement": "11-Deoxycortisol, Mean (SD) Percent Change from Baseline", "setting": "11-deoxycortisol; Wk 4, 12.5 mg BID", "value": "22.56 (118.56) %"},
      {"measurement": "11-Deoxycortisol, Mean (SD) Observed", "setting": "11-deoxycortisol; Wk 4, 12.5 mg QD", "value": "24.21 (19.92) ng/dL"},
      {"measurement": "11-Deoxycortisol, Mean (SD) Percent Change from Baseline", "setting": "11-deoxycortisol; Wk 4, 12.5 mg QD", "value": "10.07 (76.22) %"},
      {"measurement": "11-Deoxycortisol, Mean (SD) Observed", "setting": "11-deoxycortisol; Wk 4, 25 mg BID", "value": "35.23 (33.00) ng/dL"},
      {"measurement": "11-Deoxycortisol, Mean (SD) Percent Change from Baseline", "setting": "11-deoxycortisol; Wk 4, 25 mg BID", "value": "40.12 (118.32) %"},
      {"measurement": "11-Deoxycortisol, Mean (SD) Observed", "setting": "11-deoxycortisol; Wk 4, 50 mg QD", "value": "27.15 (13.97) ng/dL"},
      {"measurement": "11-Deoxycortisol, Mean (SD) Percent Change from Baseline", "setting": "11-deoxycortisol; Wk 4, 50 mg QD", "value": "10.80 (61.95) %"},
      {"measurement": "11-Deoxycortisol, Mean (SD) Observed", "setting": "11-deoxycortisol; Wk 4, 100 mg QD", "value": "29.29 (23.99) ng/dL"},
      {"measurement": "11-Deoxycortisol, Mean (SD) Percent Change from Baseline", "setting": "11-deoxycortisol; Wk 4, 100 mg QD", "value": "9.43 (60.26) %"},
      {"measurement": "11-Deoxycortisol, Mean (SD) Observed", "setting": "11-deoxycortisol; Wk 12, 12.5 mg BID", "value": "20.94 (10.27) ng/dL"},
      {"measurement": "11-Deoxycortisol, Mean (SD) Percent Change from Baseline", "setting": "11-deoxycortisol; Wk 12, 12.5 mg BID", "value": "−14.58 (33.13) %"},
      {"measurement": "11-Deoxycortisol, Mean (SD) Observed", "setting": "11-deoxycortisol; Wk 12, 12.5 mg QD", "value": "31.56 (29.77) ng/dL"},
      {"measurement": "11-Deoxycortisol, Mean (SD) Percent Change from Baseline", "setting": "11-deoxycortisol; Wk 12, 12.5 mg QD", "value": "58.62 (122.14) %"},
      {"measurement": "11-Deoxycortisol, Mean (SD) Observed", "setting": "11-deoxycortisol; Wk 12, 25 mg BID", "value": "31.55 (26.82) ng/dL"},
      {"measurement": "11-Deoxycortisol, Mean (SD) Percent Change from Baseline", "setting": "11-deoxycortisol; Wk 12, 25 mg BID", "value": "26.81 (72.59) %"},
      {"measurement": "11-Deoxycortisol, Mean (SD) Observed", "setting": "11-deoxycortisol; Wk 12, 50 mg QD", "value": "26.15 (18.89) ng/dL"},
      {"measurement": "11-Deoxycortisol, Mean (SD) Percent Change from Baseline", "setting": "11-deoxycortisol; Wk 12, 50 mg QD", "value": "9.25 (111.16) %"},
      {"measurement": "11-Deoxycortisol, Mean (SD) Observed", "setting": "11-deoxycortisol; Wk 12, 100 mg QD", "value": "31.17 (25.98) ng/dL"},
      {"measurement": "11-Deoxycortisol, Mean (SD) Percent Change from Baseline", "setting": "11-deoxycortisol; Wk 12, 100 mg QD", "value": "22.05 (64.71) %"},
      {"measurement": "11-deoxycortisol compared with placebo", "setting": "11-deoxycortisol; Part 1 active treatment arms, Week 4", "value": "Transient increases"},
      {"measurement": "11-Deoxycortisol, Mean Observed", "setting": "11-deoxycortisol; Wk 4, 100 mg QD", "value": 35.96, "unit": "ng/dL"},
      {"measurement": "11-Deoxycortisol, Mean Percent Change from Baseline", "setting": "11-deoxycortisol; Wk 4, 100 mg QD", "value": 22.95, "unit": "%"},
      {"measurement": "11-Deoxycortisol, Mean Observed", "setting": "11-deoxycortisol; Wk 10, 100 mg QD", "value": 27.60, "unit": "ng/dL"},
      {"measurement": "11-Deoxycortisol, Mean Percent Change from Baseline", "setting": "11-deoxycortisol; Wk 10, 100 mg QD", "value": "−2.13", "unit": "%"},
      {"measurement": "Adrenocortical insufficiency", "setting": "hypertensive subjects; during the trial, listed as lorundrostat", "value": "no adrenocortical insufficiency occurred"},
      {"measurement": "ACTH-stimulation results", "setting": "hypertensive subjects; majority of Part 2 subjects, 100 mg QD, Baseline and after 8 weeks", "value": "no individuals with abnormal ACTH-stimulation results"}
    ]}
  ]
}
